Numbers after ± are expanded uncertainties.
Settings: Liquid, Closed cell (Static) method

Row | SMILES | vapor or sublimation pressure (293.15 K) | vapor or sublimation pressure (303.15 K) | vapor or sublimation pressure (313.15 K) | vapor or sublimation pressure (323.14 K)
1 | FCC(F)(F)F [1,1,1,2-tetrafluoroethane] | 571.1 ± 5.1 kPa | 771.4 ± 5.2 kPa | 1018.1 ± 5.3 kPa | 1316.9 ± 5.5 kPa
2 | F/C=C/C(F)(F)F [trans-1,3,3,3-tetrafluoropropene] | 427.4 ± 5.1 kPa | 577.6 ± 5.1 kPa | 765.3 ± 5.2 kPa | 997.8 ± 5.3 kPa
3 | FCF [difluoromethane] | 1473.2 ± 5.7 kPa | 1926.7 ± 6.1 kPa | 2476.3 ± 6.6 kPa | 3142.2 ± 7.2 kPa
